Columns and labels:
FimH = biological target: T1, FimH (Escherichia coli, UniProt Q1R2J4); assay: Hemagglutination inhibition assay (HAI); type: cell-based; details: HAI titer / EC>90: concentration reducing bacterial agglutination of guinea pig red blood cells by >90%; UTI89 bacteria
T1 construct: endogenous in cells; host or cells: E. coli UTI89 whole bacteria (piliated), with guinea pig red blood cells
Source text: “HAI titer or EC>90” is that concentration of the FimH inhibitor/antagonist which reduces the bacterial agglutination of guinea pig red blood cells by greater than 90%.
The activities of the Examples 1-40 compounds above as FimH antagonists/inhibitors were obtained by the following assay(s), and values are provided in Table 1. The values not provided mean that the activities have not yet been tested.
Hemagglutination Inhibition Assay (HAI)
The hemagglutination inhibition (HAI) assay was performed with UTI89 bacteria and guinea pig red blood cells, as previously described (S. J. Hultgren, W. R. Schwan, A. J. Schaeffer, J. L. Duncan Infect. Immun. 1986, 54, 613-620 and Jarvis, C.; Han, Z.; Kalas, V.; Klein, R.; Pinkner, J. S.; Ford, B.; Binkley, J.; Cusumano, C. K.; Cusumano, Z.; Mydock-McGrane, L.; Hultgren, S. J.; Janetka, J. W., ChemMedChem 2016, 11, 367-373). Values not listed were not tested.

[1] = Rat pharmacokinetics (IV infusion 1 mg/kg, then PO 5 mg/kg; blood and urine); type: in vivo, Male Wistar Han rats; details: for PK DNAUC h * uM (DNAUC oral, dose normalized): PO 5 mg/kg, blood, AUC divided by dose in mg/kg; for bioavailability: male, Wistar Han, whole blood, oral bioavailability from dose-normalized AUC, PO 5 mg/kg vs IV infusion 1 mg/kg
Source text: General Assays for Obtaining AUC Oral h*μm, % F, and Ue % PO Values
Male Wistar Han rats were purchased from Vital River Laboratory Animal Technology Co. Ltd (Beijing, China). The animals were approx. 6-8 weeks old with body weights of 200-300 g on the dosing date. The animals were housed in a 12-hour light/12-hour dark cycle environment and had free access to food and water. All animals were fed prior to dosing. Studies were approved by the Pharmaron Institutional Animal Care and Use Committee (IACUC).
Test article was administered as an intravenous infusion for 1 hour (1 mg/kg) at 5 mL/kg/h. After 48 h, animals received a single oral dose (5 mg/kg, free form) at a dose volume of 10 mL/kg, respectively. Blood samples were collected at various time points after IV infusion and PO administrations. Urine samples were collected at various time points after IV infusion and PO administrations (for some compounds).
Test article was dissolved in DMSO with vortexing and sonification to obtain a stock solution. An aliquot of the stock solution was mixed with 10% HP-β-CD in saline with vortexing to obtain a solution with concentration at 0.2 mg/mL of test article.
Test article was added into 1% Methyl Cellulose with vortexing and sonication to obtain a homogeneous suspension with concentration at 0.5 mg/mL of test article.
For IV infusion (1 mg/kg) administration, blood samples were collected from each animal at 0, 0.25, 0.5, 0.75, 1, 1.08, 1.25, 1.5, 1.75, 2, 3, 5, 8, 12, 24 hour post-dose.
For PO (5 mg/kg) administration, blood samples were collected from each animal at 0, 0.25, 0.5, 1, 1.5, 2, 3, 4, 6, 8, 12, 24 hour post-dose.
Blood samples (50 μL) were collected from each animal via jugular vein. These blood samples were placed into tubes containing K2EDTA. Whole blood was mixed with same volume of water and inverted several times. The blood samples were stored at −75±15° C. until analysis.
For IV infusion (1 mg/kg) administration, urine samples were collected from each animal at 0-4, 4-8, 8-12, 12-24 hour post-dose.
For PO (5 mg/kg) administration, urine samples were collected (for some compounds) from each animal at 0-4, 4-8, 8-12, 12-24 hour post-dose.
55 μL of standards, 55 μL of QC samples or 55 μL of unknown samples (50 μL of blood or urine with 5 μL 50% acetonitrile) were mixed to 200 μL of acetonitrile containing IS (dexamethasone) to precipitate proteins. Then the samples were vortexed for 30 sec. After centrifugation at 4° C., 4700 rpm for 30 min, and 5 μL of the supernatant was injected into the LC-MS/MS system for quantitative analysis.
Test article blood and urine concentrations for each animal following IV infusion at 1 mg/kg and PO at 5 mg/kg were used to calculate pharmacokinetic parameters by employing a non-compartmental analysis (Phoenix™ WinNonlin® 7.0). The linear trapezoidal algorithm was used for AUC calculation. • AUC oral h*uM: Area under the curve (AUC) of drug concentration in blood vs. time (units: h*μM) following oral administration • DNAUC Dose normalized area under the curve is calculate by divided the area under the curve divided by the dose in the mg/kg • % F: Oral bioavailability (%) derived from the ratio of dose-normalized AUC following PO and IV administration • Ue % PO: Percentage of oral dose eliminated unchanged in urine or an estimate of that parameter generated from using the percentage of the iv dose eliminated in the urine times the oral bioavailability Production Methods: […]

| SMILES | HAI nM (FimH) | further results |
| --- | --- | --- |
| Cc1cc(-c2cnc(C(F)(F)F)cn2)ccc1O[C@H]1O[C@H](CO)[C@@H](O)[C@H](O)[C@@H]1O [Example 1, (2R,3S,4S,5S,6R)-2-(Hydroxymethyl)-6-(2-methyl-4-(5-(trifluoromethyl)pyrazin-2-yl)phenoxy)tetrahydro-2H-pyran-3,4,5-triol] | “++++” (<50) | PK DNAUC h * uM (DNAUC oral, dose normalized) [1]: “+++” (>0.2 h · μM); bioavailability [1]: > 30%; Ue % (Ue % po) ([1]; percentage of oral dose eliminated unchanged in urine, or estimate from IV urinary % times oral bioavailability): “+++” (>5%) |
| OC[C@H]1O[C@H](Oc2c(F)cc(-c3cnc(C(F)(F)F)cn3)cc2C(F)(F)F)[C@@H](O)[C@@H](O)[C@@H]1O [Example 2, (2R,3S,4S,5S,6R)-2-(2-Fluoro-6-(trifluoromethyl)-4-(5-(trifluoromethyl)pyrazin-2-yl)phenoxy)-6-(hydroxymethyl)tetrahydro-2H-pyran-3,4,5-triol] | “++++” (<50) | – |
| OC[C@H]1O[C@H](Oc2ccc(-c3cnc(C(F)(F)F)cn3)cc2C(F)(F)F)[C@@H](O)[C@@H](O)[C@@H]1O [Example 3, (2R,3S,4S,5S,6R)-2-(Hydroxymethyl)-6-(2-(trifluoromethyl)-4-(5-(trifluoromethyl)pyrazin-2-yl)phenoxy)tetrahydro-2H-pyran-3,4,5-triol] | “+++” (50-200) | PK DNAUC h * uM (DNAUC oral, dose normalized) [1]: “++” (0.1 ≤ × ≤ 0.2h · μM); bioavailability [1]: 10 to 30% |
| Cc1cc(-c2cc(F)cc(C#N)c2)ccc1O[C@H]1O[C@H](CO)[C@@H](O)[C@H](O)[C@@H]1O [Example 4, 5-Fluoro-3′-methyl-4′-(((2R,3S,4S,5S,6R)-3,4,5-trihydroxy-6-(hydroxymethyl)tetrahydro-2H-pyran-2-yl)oxy)-[1,1′-biphenyl]-3-carbonitrile] | “+++” (50-200) | PK DNAUC h * uM (DNAUC oral, dose normalized) [1]: “+++” (>0.2 h · μM); bioavailability [1]: > 30% |
| Cc1cc(-c2cc(C(F)(F)F)ccn2)ccc1O[C@H]1O[C@H](CO)[C@@H](O)[C@H](O)[C@@H]1O [Example 5, (2R,3S,4S,5S,6R)-2-(hydroxymethyl)-6-(2-methyl-4-(4-(trifluoromethyl)pyridin-2-yl)phenoxy)tetrahydro-2H-pyran-3,4,5-triol] | “+++” (50-200) | PK DNAUC h * uM (DNAUC oral, dose normalized) [1]: “+++” (>0.2 h · μM); bioavailability [1]: > 30% |
| N#Cc1cc(F)cc(-c2cc(F)c(O[C@H]3O[C@H](CO)[C@@H](O)[C@H](O)[C@@H]3O)c(C(F)(F)F)c2)c1 [Example 6] | “++++” (<50) | PK DNAUC h * uM (DNAUC oral, dose normalized) [1]: “+” (<01 h · μM) |
| Cc1cc(-c2cnc(N3CCCC3)cn2)ccc1O[C@H]1O[C@H](CO)[C@@H](O)[C@H](O)[C@@H]1O [Example 7] | “++++” (<50) | PK DNAUC h * uM (DNAUC oral, dose normalized) [1]: “+” (<01 h · μM) |
| COc1ccc(-c2ccc(O[C@H]3O[C@H](CO)[C@@H](O)[C@H](O)[C@@H]3O)c(C)c2)cn1 [Example 8] | “+++” (50-200) | – |
| Cc1cc(-c2ccc(N3CCCC3)nc2)ccc1O[C@H]1O[C@H](CO)[C@@H](O)[C@H](O)[C@@H]1O [Example 9] | “++++” (<50) | – |
| Cc1cc(-c2ccnc(N(C)C)c2)ccc1O[C@H]1O[C@H](CO)[C@@H](O)[C@H](O)[C@@H]1O [Example 10] | “++++” (<50) | – |
| N#Cc1cc(F)cc(-c2ccc(O[C@H]3O[C@H](CO)[C@@H](O)[C@H](O)[C@@H]3O)c(Cl)c2)c1 [Example 11] | “+++” (50-200) | – |
| OC[C@H]1O[C@H](Oc2ccc(-c3nccc(C(F)(F)F)n3)cc2C(F)(F)F)[C@@H](O)[C@@H](O)[C@@H]1O [Example 13] | “+++” (50-200) | – |
| Cc1cc(-c2ncc(C(F)(F)F)cn2)ccc1O[C@H]1O[C@H](CO)[C@@H](O)[C@H](O)[C@@H]1O [Example 15] | “+++” (50-200) | – |
| OC[C@H]1O[C@H](Oc2ccc(-c3cc(C(F)(F)F)ccn3)cc2C(F)(F)F)[C@@H](O)[C@@H](O)[C@@H]1O [Example 18] | “+++” (50-200) | – |
| OC[C@H]1O[C@H](Oc2c(F)cc(-c3cc(C(F)(F)F)ccn3)cc2C(F)(F)F)[C@@H](O)[C@@H](O)[C@@H]1O [Example 19] | “++++” (<50) | – |
| OC[C@H]1O[C@H](Oc2ccc(-c3cc(C(F)(F)F)c(F)cn3)cc2C(F)(F)F)[C@@H](O)[C@@H](O)[C@@H]1O [Example 20] | “+++” (50-200) | – |

| SMILES | HAI nM (FimH) | further results |
| --- | --- | --- |
| Cc1cc(-c2cnc(C(F)(F)F)c(F)c2)ccc1O[C@H]1O[C@H](CO)[C@@H](O)[C@H](O)[C@@H]1O [Example 21] | “+++” (50-200) | – |
| OC[C@H]1O[C@H](Oc2ccc(-c3ncc(C(F)(F)F)cn3)cc2C(F)(F)F)[C@@H](O)[C@@H](O)[C@@H]1O [Example 22] | “+++” (50-200) | – |
| Cc1cc(-c2cnccn2)ccc1O[C@H]1O[C@H](CO)[C@@H](O)[C@H](O)[C@@H]1O [Example 23] | “+++” (50-200) | – |
| Cc1cc(-c2ccnc(C(F)(F)F)c2)ccc1O[C@H]1O[C@H](CO)[C@@H](O)[C@H](O)[C@@H]1O [Example 24] | “+++” (50-200) | – |
| Cc1cc(-c2ccc(C(F)(F)F)nc2)ccc1O[C@H]1O[C@H](CO)[C@@H](O)[C@H](O)[C@@H]1O [Example 26] | “+++” (50-200) | – |
| Cc1cc(-c2ccc(C(F)(F)F)cn2)ccc1O[C@H]1O[C@H](CO)[C@@H](O)[C@H](O)[C@@H]1O [Example 27] | “+++” (50-200) | – |
| Cc1cc(-c2nccnc2C(F)(F)F)ccc1O[C@H]1O[C@H](CO)[C@@H](O)[C@H](O)[C@@H]1O [Example 29] | “+++” (50-200) | – |
| Cc1cc(-c2cnc(F)c(C(F)(F)F)c2)ccc1O[C@H]1O[C@H](CO)[C@@H](O)[C@H](O)[C@@H]1O [Example 31] | “+++” (50-200) | – |
| OC[C@H]1O[C@H](Oc2ccc(-c3ccc(C(F)(F)F)cn3)cc2C(F)(F)F)[C@@H](O)[C@@H](O)[C@@H]1O [Example 32] | “+++” (50-200) | – |
| OC[C@H]1O[C@H](Oc2ccc(-c3cnc(C(F)(F)F)cn3)cc2Cl)[C@@H](O)[C@@H](O)[C@@H]1O [Example 33] | “+++” (50-200) | – |
| Cc1cc(-c2cncc(C(F)(F)F)n2)ccc1O[C@H]1O[C@H](CO)[C@@H](O)[C@H](O)[C@@H]1O [Example 34] | “+++” (50-200) | – |
| OC[C@H]1O[C@H](Oc2c(F)cc(-c3ccc(C(F)(F)F)nc3)cc2C(F)(F)F)[C@@H](O)[C@@H](O)[C@@H]1O [Example 35] | – | PK DNAUC h * uM (DNAUC oral, dose normalized) [1]: “+” (<01 h · μM) |
| OC[C@H]1O[C@H](Oc2c(F)cc(-c3nccc(C(F)(F)F)n3)cc2C(F)(F)F)[C@@H](O)[C@@H](O)[C@@H]1O [Example 36] | “++++” (<50) | – |
| OC[C@H]1O[C@H](Oc2ccc(-c3cccc(C(F)(F)F)n3)cc2C(F)(F)F)[C@@H](O)[C@@H](O)[C@@H]1O [Example 39] | “+++” (50-200) | – |
| Cc1cc(-c2cccc(C(F)(F)F)n2)ccc1O[C@H]1O[C@H](CO)[C@@H](O)[C@H](O)[C@@H]1O [Example 40] | “+++” (50-200) | – |
